Several values for one entry are separate records, joined by “and”; a condition that tells them apart may be missing. Equal entries are not always repeated. Numbered stars: 1 amine (or outer) side, 2 acyl side, 3 side chain; on linkers, the order of the positions; unused ones are H or OH. Square brackets hold non-standard residues; d marks the D form. Peptide text beside a SMILES is read from it. ξ: configuration not given here. X1 = CSCC[C@H](NC(=N)[C@H](Cc1c[nH]cn1)N[*:1])C(=O)[*:2]; pS = N[C@@H](COP(=O)(O)O)C(=O)O; Ile(3ξ) = CCC(C)[C@H](N)C(=O)O
Legend:
Balb/c mice = assay: 31-day HDM-induced asthma model, BAL cells; type: in vivo, mouse; conditions: for B cells / DCs / Eosinophils / Macrophages / Neutrophils / T cells / Total cells: BAL, HDM-sensitized, P140 i.v. 4 mg/kg day 25, individual mice
Description: The aim of this study was to evaluate the effect of the P140 phosphopeptide administered systemically (intravenously) in a 31-day model of HDM-induced asthma in mice. The P140 phosphopeptide was solubilized in sterile water (Braun) and 10× concentrate sterile saline was added to adjust osmolarity to 300 mosm. Osmolarity was controlled with a micro osmometer (Löser, type 15) and validated (303 mosm). The P140 phosphopeptide was used in vivo at the dose of 4 mg/kg by intravenous (i.v.) routes. Control animals received equivalent volumes (2 ml/kg) of saline (Table 8).
Nine-week-old male Balb/c mice were sensitized by intranasal (i.n.) administration of HDM extract (Stallergenes): 1 μg in 25 μl saline on days 0, 1, 2, 3, 4, and 10 μg on days 14 and 21. Mice were challenged by i.n. administration of HDM (1 μg) and/or saline on days 28, 29 and 30. Mice were treated by i.v. injection (2 ml/kg) of P140 or solvent on day 25 (see FIG. 14).
BAL was performed after airway responsiveness measurement twenty-four hours after HDM challenge as described (Daubeuf et al. 2012). Mice were anaesthetized IP (Ketamine 150 mg/kg—Xylasine 10 mg/kg). Blood was collected from the heart, centrifuged at 10,000 g for 2 min and serum stored at −20° C.
After semi-excision of the trachea, a plastic cannula was inserted, and airspace washed with 0.5 ml of 0.9% NaCl injected with a 1 ml syringe. This procedure was performed 10 times. The initial concentrated supernatant of the 2 first lavages (volume=2×0.5 ml administered, approximately 0.5 ml recovered) was collected for cytokine measurements. The remaining BAL fluid was centrifuged (300 g for 5 min, 4° C.), and cell pellets pooled. The cell pellet was suspended in 500 μl of 0.9% NaCl and used for total cell counts evaluated on a Muse® Cell Analyser (Millipore). Differential cell counts were assessed by flow cytometry (LSRII® cytometer, BD Bioscience). BAL cells were added with FCblock (0.5 μl, 553142, BD Bioscience) in a black microplate, incubated for 20 min at room temperature. Then, marker antibodies were added: CD11c-FITC (557400, BD bioscience), Gr-1-PeeFluor610 (61-5931-82, eBioscience), F4/80-PE (12-4801-82, eBioscience), CD11b-APC-Cy7 (557657, BD bioscience), CD45-AlexaFluor700 (103128, BioLegend), CD3-BV605 (564009, BD bioscience), CD19-PE-Cy7 (552854, BD bioscience). Antibodies were incubated with BAL cells for 30 min at room temperature before DAPI (5 μl, BD bioscience) addition, and flow cytometry was performed immediately.
All mice were sensitized to HDM on days 0, 1, 2, 3, 4, 14, 21, and challenged either with saline ([…]) or HDM (challenge with allergen). Results are presented as means±SEM. Differences between groups were tested for statistical significance using Student's t test for inflammatory cells and a two-way ANOVA followed by Bonferroni post-test for airway responses.

MRL/lpr mice = assay: Survival analysis in MRL/lpr mice; type: in vivo, mouse; conditions: female MRL/lpr mice, peptide intravenously from five weeks of age; NaCl control 25 weeks
Description: It has been determined that this mouse strain carries a mutation in the fas gene. Also, the MRL/lpr is a useful model to study behavioural and cognitive deficits found in autoimmune diseases and the efficacy of immunosuppressive agents [Monneaux et al., 2003, Eur. J. Immunol. 33, 287-296].
Five-week-old female MRL/lpr mice received P140 or peptide P140(MO) intravenously as described (Monneaux et al., 2003, Eur. J. Immunol. 33, 287-296). All experimental protocols were carried out with the approval of the local Institutional Animal Care and Use Committee (CREMEAS). As control, mice were injected with NaCl.
Twenty mice were used for each peptide or NaCl.
Statistical tests were performed using GraphPad Prism version 5.0. The two-way ANOVA test was used to analyze statistical significance of proteinuria differences between control and peptide-treated groups of mice. Survival of control and P140 analogue-treated female MRL/lpr mice was analyzed by the Kaplan-Meier method, and the significance of differences was determined by the log-rank test. For the other variables, statistical significance was assessed using the Student's t-test. p values less than 0.05 were considered significant.

C57BL/6 mice = assay: K/B×N serum transfer mouse model of rheumatoid arthritis; type: in vivo
Description: The TCR transgenic mice expressing the KRN and the MHC class II A^g7 molecule (K/B×N mice) have developed a severe inflammatory arthritis. The administration of serum of these mice to healthy recipient mice causes inflammatory arthritis over a period of about 15 days with a peak ignition around day 7 post-injection.
Two mouse serum administrations from K/B×N were performed (day 0 and day 2). The injection of serum (100 μl/mouse) is performed by intra-peritoneal (ip) injection in mice C57BL/6 (or B6) for 8 weeks (n=10); untreated mouse (n=10).
The P140 peptide (100 μg/100 μl; iv retro-orbital) was administered as follows:
Curative treatment: Injection at day 1 and day 4, to guide the peak of inflammatory disease. Preventive treatment: Injection at day −7 and day −2. Bleeding S0 (at day 0) is followed by bloodletting conducted every six days to dispose of serum. The study ends when inflammation has returned to its basal level, to around day 20 (see FIG. 21).
During the peak of inflammation, every day the animals are evaluated, and swelling score of articulation is established. It is ranged from 0 to 4 and based on a joint observation of the animal. In practice, this score is given for each leg (4 values) and these values are added together to get a general score that ranges from 0 to 16 (FIG. 22).

[1] = saline-challenged (chronic asthma)
[2] = chronic asthma (saline-challenged), P140 4 mg/kg i.v. day 25
[3] = chronic asthma (saline-challenged), P140 4 mg/kg i.v. day 25, non-significant

CCC(C)[C@H](NC(=O)[C@H](Cc1ccccc1)NC(=O)[C@H](C)NC(=O)[C@H](Cc1ccc(O)cc1)NC(=O)CNC(=O)[C@H](CCCNC(=N)N)NC(=O)[C@@H]1CCCN1C(=O)[C@H](CCCCN)NC(=O)CNC(=O)[C@H](COP(=O)(O)O)NC(=O)[C@H](CCCNC(=N)N)NC(=O)[C@H](CCCCN)NC(=O)[C@H](CO)NC(=O)[C@H](Cc1ccc(O)cc1)NC(=O)[C@@H](NC(=O)[C@H](CCSC)NC(=N)[C@H](Cc1c[nH]cn1)NC(=O)[C@@H](NC(=O)[C@@H](N)CCCNC(=N)N)C(C)CC)C(C)C)C(=O)N[C@@H](CCC(=O)O)C(=O)N[C@@H](Cc1ccc(O)cc1)C(=O)O (some centres unmarked) [Compound P140] (H-R[Ile(3ξ)][X1]VYSKR[pS]GKPRGYAF[Ile(3ξ)]EY-OH)
B cells (Balb/c mice; HDM-challenged (HDM + P140)): 59 092 and 102 246 and 42 085 and 25 443 and 116 814 and 115 000 and 53 947 and 170 980 | DCs (Balb/c mice; HDM-challenged (HDM + P140)): 1 034 and 2 238 and 1 793 and 242 and 586 and 1 350 and 733 and 1 928 | Eosinophils (Balb/c mice; HDM-challenged (HDM + P140)): 955 824 and 1 404 942 and 636 065 and 342 046 and 1 283 190 and 1 036 803 and 538 210 and 1 010 666 | Macrophages (Balb/c mice; HDM-challenged (HDM + P140)): 58 705 and 118 771 and 314 326 and 125 002 and 34 364 and 38 709 and 29 121 and 73 491 | Neutrophils (Balb/c mice; HDM-challenged (HDM + P140)): 606 700 and 510 027 and 500 004 and 147 616 and 371 317 and 487 119 and 284 503 and 24 426 | T cells (Balb/c mice; HDM-challenged (HDM + P140)): 400 329 and 735 865 and 383 074 and 243 813 and 469 834 and 502 985 and 334 784 and 1 056 303 | Total cells (Balb/c mice; HDM-challenged (HDM + P140)): 2140000 and 2992000 and 2190000 and 1010000 and 2310000 and 2220000 and 1270000 and 2410000 | B cells (Balb/c mice; [1]): 2 297 and 44 668 and 22 879 and 11 101 and 7 660 | DCs (Balb/c mice; [1]): 0 and 484 and 461 and 319 and 160 | Eosinophils (Balb/c mice; [1]): 124 514 and 450 346 and 448 074 and 205 568 and 239 527 | Macrophages (Balb/c mice; [1]): 130 734 and 267 885 and 360 987 and 177 815 and 73 725 | Neutrophils (Balb/c mice; [1]): 2 584 and 35 734 and 23 986 and 34 836 and 2 394 | T cells (Balb/c mice; [1]): 57 711 and 323 623 and 294 011 and 208 439 and 86 810 | Total cells (Balb/c mice; [1]): 448000 and 1390000 and 1510000 and 815000 and 484000 | Inflammatory cell recruitment in BAL (Balb/c mice; HDM-challenged mice, vs solvent group): no effect | Increase of number of macrophages in BAL vs solvent group (Balb/c mice; [2]): 4.5 fold | Number of neutrophils in BAL, change vs solvent group (Balb/c mice; [2]): −71% | Number of B cells in BAL, change vs solvent group (Balb/c mice; [3]): −40% | Number of eosinophils in BAL, change vs solvent group (Balb/c mice; [3]): −25% | Median survival of mice (MRL/lpr mice): 29 weeks | Weight loss (C57BL/6 mice; curative protocol (P140 day 1 and day 4), from day 2): 15% | Weight gain (C57BL/6 mice; curative protocol, between day 5 and the end of the study, controls 5%): 20% | Inflammation score per leg, maximum (C57BL/6 mice; curative protocol, rear legs): ~1.5 | Weight loss (C57BL/6 mice; preventive protocol (P140 day −7 and day −2), day 1 to day 7, controls 10%): 5% | Increase in size of joints, right back legs (C57BL/6 mice; preventive protocol, day 0 to day 7, controls about 22%): around 12% | Increase in size of the joint, left hind paws (C57BL/6 mice; preventive protocol, day 0 to day 7, controls about 30%): about 15% | Increase in size of articulation, left front leg (C57BL/6 mice; preventive protocol, controls 45%): 20% | Swelling in the joints of right front leg (C57BL/6 mice; preventive protocol, controls nearly 45%): +20% | General inflammation score, maximum (C57BL/6 mice; preventive protocol, sum of four legs, controls around 7 (printed day 7)): ≤ 5
